Assay results published in patent US5840927A, “Sesquiterpene compounds” (Toa Gosei Co., Ltd., priority 1995, dated 1998).
In brackets after ≈: the same amount, converted by molar mass.

What was measured:
[1] = tested on: Aspergillus niger TIMM0113; assay: MIC assay of anti-fungal activity in vitro, Aspergillus niger TIMM0113; assay type: cell-based; details: 96 h, A. niger TIMM0113, Yeast Morphology Ager, serial double dilution, 30° C., 4 days
Protocol: (§1) In the following, examples of anti-fungal assays are described.
(§2) In the assay standard microbial strains supplied from Research Center for Eumyceta and Mycosis, Teikyo University, Japan, were used as the test fungi, and Yeast Morphology Ager (DIFCO) was used as the medium for the drug sensitivity assays.
(§3) Firstly, the given fungus was smeared on the potato-dextrose agar media (Nissui Seiyaku) slants, incubated at 30° C. for 1 day (for Candida albicans and Cryptococcus neoformans) or for 4 days (for Aspergillus nigar and Aspergillus fumigatus), and then the fungus grown on the slant was washed out with a sterilized physiological salt solution containing 0.1% Tween 80. The washed out fungus was passed through a filter with 15 μm bores, and, after the number of fungus colonies were counted on the blood cell counting plate, a suspension containing 10^5 CFU/ml of fungus was prepared to be used as the inoculation solution. After this solution (0.02 ml) was inoculated to Yeast Morphology Ager containing a drug at concentrations in a serial double dilution, it was cultured at 30° C. for either 1 day or 4 days.
(§4) MIC assay of cryptoporic acid H was carried out by the similar procedure as described above.

[2] = tested on: Candida albicans TIMM1623; assay: MIC assay of anti-fungal activity in vitro, Candida albicans TIMM1623; assay type: cell-based; details: 24 h, C. albicans TIMM1623, Yeast Morphology Ager, serial double dilution, 30° C., 1 day
Protocol: as §1, §2, §3, §4

[3] = tested on: Aspergillus fumigatus TIMM0063; assay: MIC assay of anti-fungal activity in vitro, Aspergillus fumigatus TIMM0063; assay type: cell-based; details: 96 h, A. fumigatus TIMM0063, Yeast Morphology Ager, serial double dilution, 30° C., 4 days
Protocol: as §1, §2, §3, §4

[4] = tested on: Saccharomyces cerevisiae JCM2216; assay: MIC assay, Saccharomyces cerevisiae JCM2216; assay type: cell-based; details: similar procedure as described above
[5] = Solubility; assay type: physicochemical
[6] = tested on: Candida albicans, Cryptococcus neoformans, Aspergillus nigar and Aspergillus fumigatus; assay: anti-microbial activity in vitro against test fungi (overall statement); assay type: cell-based; details: stated in words
Protocol: as §1, §2, §3

[7] = tested on: C. neoformans TIMM0354; assay: MIC assay of anti-fungal activity in vitro, Cryptococcus neoformans TIMM0354; assay type: cell-based; details: 24 h, Yeast Morphology Ager, serial double dilution, 30° C., 1 day
Protocol: as §1, §2, §3

[8] = in methanol, acetone, and ethyl acetate

Row | MIC [1] [µg/mL] | MIC [2] [µg/mL] | MIC [3] [µg/mL] | MIC [4] [µg/mL] | Solubility ([5]; in chloroform) | Solubility [5, 8] | Solubility ([5]; in water) | MIC [7] [µg/mL] | Compound | anti-fungal activities [6]
1 | 200 (≈ 504 µM) | 200 (≈ 504 µM) | 200 (≈ 504 µM) | 200 (≈ 504 µM) |  |  |  |  | C=C1CC[C@H]2C(C)(C)CCC[C@]2(C)[C@H]1COC(C(=O)O)C(CC(=O)O)C(=O)O (some centres unmarked) [Cryptoporic acid H, cryptoporic acid H] | 
2 | 50 (≈ 77.8 µM) | 100 (≈ 156 µM) | 50 (≈ 77.8 µM) |  | soluble | readily soluble | slightly soluble | 50 (≈ 77.8 µM) | C=C1CC[C@H]2C(C)(C)CCC[C@]2(C)[C@H]1COC(C(=O)OC)C(CC(=O)O)C(=O)O[C@H]1CC(C)(C)[C@@H]2CC=C(C=O)[C@H](C=O)[C@@]2(C)C1 (some centres unmarked) [TG101] | confirming their anti-fungal activities
3 |  |  |  |  | soluble | readily soluble | slightly soluble |  | C=C1CC[C@H]2C(C)(C)CCC[C@]2(C)[C@H]1COC(C(=O)O[C@H]1CC(C)(C)[C@@H]2CC=C(C=O)[C@H](C=O)[C@@]2(C)C1)C(CC(=O)O)C(=O)OC (some centres unmarked) [TG102] | 
4 | 100 (≈ 155 µM) | 100 (≈ 155 µM) | 25 (≈ 38.8 µM) |  | soluble | readily soluble | slightly soluble | 50 (≈ 77.5 µM) | C=C1CC[C@H]2C(C)(C)CCC[C@]2(C)[C@H]1COC(C(=O)OC)C(CC(=O)O)C(=O)O[C@H]1CC(C)(C)[C@@H]2CC=C3COC(O)[C@@H]3[C@@]2(C)C1 (some centres unmarked) [TG103] | confirming their anti-fungal activities
5 |  |  |  |  | soluble | readily soluble | slightly soluble |  | C=C1CC[C@H]2C(C)(C)CCC[C@]2(C)[C@H]1COC(C(=O)O[C@H]1CC(C)(C)[C@@H]2CC=C3COC(O)[C@@H]3[C@@]2(C)C1)C(CC(=O)O)C(=O)OC (some centres unmarked) [TG104] | 
